Test results as given in ChEMBL document CHEMBL1158248, “Pessoine and spinosine, two catecholic berbines from Annona spinescens” (1996).

Tests used:
Type in all cases: functional
[1] = test system: Trypanosoma cruzi; test: Trypanocidal activity against Trypanosoma cruzi trypomastigote assessed as lysis of trypomastigotes at 250 ug/mL after 24 hrs relative to control
[2] = test system: Leishmania amazonensis; test: Antileishmanial against Leishmania amazonensis promastigote LV 79 assessed as total lysis of parasites after 48 hrs
[3] = test system: Leishmania amazonensis; test: Antileishmanial against Leishmania amazonensis promastigote LV 79 assessed as lysis of parasites at 10 ug/mL after 48 hrs
[4] = test system: Leishmania braziliensis; test: Antileishmanial against Leishmania brasiliensis 2903 promastigote assessed as total lysis of parasites after 48 hrs
[5] = test system: Leishmania donovani; test: Antileishmanial against Leishmania donovani promastigote PP-75 assessed as lysis of parasites at 10 ug/mL after 48 hrs
[6] = test system: Leishmania donovani; test: Antileishmanial against Leishmania donovani promastigote PP-75 assessed as total lysis of parasites after 48 hrs
[7] = test system: Leishmania amazonensis; test: Antileishmanial against Leishmania amazonensis promastigote LV 79 assessed as lysis of parasites at 50 ug/mL after 48 hrs
[8] = test system: Leishmania braziliensis; test: Antileishmanial against Leishmania brasiliensis 2903 promastigote assessed as lysis of parasites at 100 ug/mL after 48 hrs
[9] = test system: Leishmania donovani; test: Antileishmanial against Leishmania donovani promastigote PP-75 assessed as lysis of parasites at 25 ug/mL after 48 hrs

Compound | Activity [1] [%] | Activity [2] [µg/mL] | Activity [6] [µg/mL] | further results
COc1cc2c(cc1O)-c1c(O)c(OC)cc3c1[C@H](C2)NCC3 [NORBRACTEOLINE] | 62 | – | – | –
COc1cc2c3c(c1O)-c1cc4c(cc1CC3N(C(C)=O)CC2)OCO4 (stereo unspecified) [ACETYLNORDOMESTICINE] | 60 | – | – | –
c1ccc2c(c1)C[C@H]1NCCc3cc4c(c-2c31)OCO4 [ANONAINE] | 99 | 25 | 100 | Activity [3]: 90%; Activity [4]: 50 µg/mL; Activity [5]: 90%
COc1cc2c3c(c1OC)C1(C=CC(=O)C=C1)C[C@@H]3NCC2 [STEPHARINE] | 65 | – | – | –
COC(=O)/C=C/c1cc(OC)c(O)c(OC)c1 [METHYL SINAPATE] | 44 | – | – | –
MEGLUMINE ANTIMONATE | – | > 100 | > 100 | Activity [4]: > 100 µg/mL
COc1cc2c(cc1O)[C@@H]1Cc3cc(O)c(O)cc3CN1CC2 | 55 | – | – | –
O=C1c2ccccc2-c2c3c(cc4ccnc1c24)OCO3 [LIRIODENINE] | 50 | 100 | 100 | Activity [7]: 90%; Activity [8]: 90%; Activity [9]: 90%
CN(C)c1ccc(C(=C2C=CC(=[N+](C)C)C=C2)c2ccc(N(C)C)cc2)cc1.[Cl-] [GENTIAN VIOLET] | 100 | – | – | –
